This passage reports EC50 and T/C results from ChEMBL document CHEMBL1151297, “Studies of the Thymelaeaceae II. Antineoplastic principles of Gnidia kraussiana” (1984).

The test system of assay [1] is P388. Put plainly: Cytotoxicity against mouse P388 cells. Type of assay: functional. To be noted: read-out: ED50 (the source's name).
Assay [2] deals with P388. The assay can be described thus: In vivo antitumor activity against mouse P388 cells at 30 ug/kg. In kind it is functional.

The structures appear in SMILES notation. In brackets after ≈: the same amount, converted by molar mass. A value given as a limit tells only on which side of the number the result lay.

As for `C=C(C)[C@]12C[C@@H](C)[C@@]34O[C@@]5(CCCCCCC[C@H](C)[C@H]6[C@H](C)[C@H](OC(=O)c7ccccc7)[C@@](O)([C@H](O)[C@@]7(CO)O[C@H]7[C@@H]3[C@H]1O5)[C@@H]64)O2`, the EC50 with P388 [1] came to 2.3 ng/mL (≈ 3.6 nM).

On to `C=C(C)[C@]12C[C@@H](C)[C@@]34O[C@](/C=C/C=C/CCCCC)(O[C@@H]1[C@@H]3[C@@H]1O[C@]1(CO)[C@@H](O)[C@]1(O)C(=O)C(C)=C[C@H]14)O2` [EXCOECARIA TOXIN], for which the EC50 in the assay with P388 [1] is 0.24 ng/mL (≈ 0.454 nM).

As for `C=C(C)[C@@]12O[C@@]3(/C=C/C=C/CCCCC)O[C@@H]1[C@@H]1[C@@H]4O[C@]4(CO)[C@@H](O)[C@]4(O)C(=O)C(C)=C[C@H]4[C@@]1(O3)[C@H](C)[C@H]2OC(=O)c1ccccc1` [GNIDILATIDIN], the EC50 in the assay with P388 [1] is under 1 ng/mL.

Regarding `C=C(C)[C@@]12O[C@@]3(CCCCCCCCC)O[C@@H]1[C@@H]1[C@@H]4O[C@]4(CO)[C@@H](O)[C@]4(O)C(=O)C(C)=C[C@H]4[C@@]1(O3)[C@H](C)[C@H]2OC(=O)c1ccccc1` [GNIDILATIN], the EC50 in the assay on P388 [1] is under 1 ng/mL.

Usually T/C stands for the ratio of treated to control. For the compound `C=C(C)[C@@]12C[C@@H](C)[C@@]34OC5(O[C@@H]1[C@@H]3[C@@H]1O[C@]1(CO)[C@@H](O)[C@@]1(O)[C@H]4[C@H]([C@H](C)[C@@H]1OC(=O)c1ccccc1)[C@H](C)CCCCCC[C@H]5O)O2` [KRAUSSIANIN], the T/C with P388 [2] is on record as 152%. Besides, the EC50 in the assay on P388 [1] is 0.78 ng/mL (≈ 1.19 nM).
